Tests used:
[1] = Anxiety-like behaviors in the elevated plus maze; assay type: in vivo, mouse
From the text: The EPM apparatus was made of grey polyvinyl chloride and consisted of four elevated arms. The arms (height, 60 cm; length, 37 cm; width, 6 cm; each) were arranged in a cross-like disposition, with two opposite arms being enclosed by walls and the two other arms being open. A video camera placed on the top of the maze and connected to a tracking system allowed the automatic scoring of the locomotion of the mice in the maze. The light intensity of the maze was set at 45 lux in the open arms. One mouse was placed in the center of the EPM and was then free to explore the entire maze for 5 minutes. The time spent and the number of entries into the open arms and closed arms were measured. A decrease in the percentages of visits and/or of the time spent in open arms reflects an increase in anxiety levels.
Rimonabant was dissolved in a vehicle containing DMSO, (2%), Tween80 (2%) in injectable NaCl 0.9%. Within the same study, the effect of intraperitoneal injection of rimonabant at 10 mg/kg or of vehicle alone (10 ml/kg) was studied in the EPM in 2-month-old male C57B1/6J mice (n=10 per group). The EPM test was performed 30 minutes after rimonabant injection.

[2] = Depressive-like behaviors in the sucrose preference test; assay type: in vivo, mouse
Experimental: Sucrose preference was tested in the home cages of the mice. A sucrose solution containing 2% of sucrose (D(+) saccharose) in tap water was poured in plastic graduated bottles (volume in each bottle, 45 ml). Identical bottles were filled with tap water. All the mice were first habituated to the bottles and to the sucrose solution. One bottle containing water and one bottle containing sucrose were placed in the hopper of each home cage. […] The mice had access to the solutions from the beginning of the dark phase, at the daily peak of food and water consumption (from 7 pm to 8.30 am). The sucrose preference test was performed seven days later. Water and sucrose solutions were presented as described for habituation except that mice had access to the solutions from 12 pm to 10 pm. At each time point, the bottles were weighed, 1 g corresponding to 1 ml. The intake volume was calculated by subtracting the initial bottle weight to the final bottle weight.
15 or 30 mg/kg or of vehicle (corn oil; 5 ml/kg) was studied in the sucrose preference test in 2-month-old male C57B1/6J mice (n=7-8 per group). Rimonabant was dissolved in a vehicle containing dimethylsulfoxide (DMSO, 2%), Tween80 (2%) in injectable NaCl 0.9%. Within the same study, the effect of repeated intraperitoneal injections of rimonabant at 10 mg/kg or of vehicle alone (10 ml/kg) was studied in the sucrose preference test in 2-month-old male C57B1/6J mice (n=8 per group).

[3] = test system: primary culture of rat cortical neurons; assay: Neurotoxicity in primary culture of cortical neurons; assay type: cell-based; settings: from 30 μM
Experimental: Cells were then followed by time-lapse imaging during 72 hours. The cells were then permeabilized. This procedure allowed to express the cytolysis over time as a percentage of the total number of cells per well.

[4] = test system: primary culture of rat hepatocytes; assay: Hepatotoxicity in primary culture of hepatocytes; assay type: cell-based
Experimental: (§1) The percentage of cytolysed hepatocytes over time was determined by time lapse imaging with a fluorescent cytolysis marker. The number of bile canaliculi after 48 hours of treatment was determined using a fluorescent bile salt analog.
(§2) Primary rat hepatocytes from 10-12 weeks old Wistar rats were isolated using a two-step collagenase perfusion method. After 24 hours, cells were covered with a layer of Matrigel to perform a sandwich configuration culture. […] Cells were then stained using a fluorescent bile salt analog to measure the bile canaliculi network state and the Bsep pump activity. Acetaminophen (30 mM) and Cyclosporin A (1 μM) were added as positive controls of hepatotoxicity and biliary canaliculi loss, respectively.

[5] = test system: primary culture of rat hepatocytes; assay: Biliary function: bile canaliculi in primary hepatocytes
Experimental: as §1, §2

[6] = Beyer et al., 2010; Patel and Hillard, 2006; cited from earlier work
[7] = therapeutic dose for the treatment of obesity; Zavatti et al., 2011; EPAR; cited from earlier work
[8] = Food intake of standard chow in lean mice; settings: acute 10 mg/kg ip; first 3 hours after light-off; male C57BL/6J
Experimental: Spontaneous intake of standard chow in mice was evaluated during the dark phase of the light-dark cycle. The amount of food eaten was measured at light-off, 3 hours and 13 hours after light-off.

[9] = test system: HeLa cells; assay: Genotoxicity: Histone H2AX phosphorylation; settings: 100 μM; 24 hours
[10] = Body weight of lean mice, repeated administrations
[11] = reference ID100 for rimonabant effects = 10 mg/kg

Cc1c(C(=O)NN2CCCCC2)nn(-c2ccc(Cl)cc2Cl)c1-c1ccc(Cl)cc1 [rimonabant]
Time spent and number of visits in the open arms ([1]; acute 10 mg/kg ip, 30 minutes after injection): markedly reduced the time spent and the number of visits in the open arms
ID100: increase in anxiety-like behaviors ([1]; male mice): 10 mg/kg
Effect: increase in anxiety-like behaviors (acute administration) ([1]; male mice, rimonabant 10 mg/kg): Yes
N fold ID100: increase in anxiety-like behaviors [1, 11]: 1
Sucrose consumption ([2]; 10 mg/kg ip once a day, 28 days): reduced by half sucrose consumption
ID100: increase in depression-related behaviors ([2]; male mice): 10 mg/kg
Effect: increase in depression-related behaviors (repeated administration) ([2]; male mice, rimonabant 10 mg/kg): Yes
N fold ID100: increase in depression-related behaviors [2, 11]: 1
Neural cell death [3]: 80%
Hepatocyte death ([4]; from 10 μM): 100%
Concentration increasing hepatocyte cell death ([4]; tested 0.1 to 100 μM, 48 hours): ≥ 3000 nM
Effect on bile canaliculi ([5]; from 10 μM): suppressed bile canaliculi
Concentration decreasing the number of canaliculi ([5]; tested 0.1 to 100 μM, 48 hours): ≥ 1000 nM
Doses with similar effects (anhedonia, anxiety-like behaviors) in rodents [6]: ≥ 1 mg/kg
Doses inducing scratching, hyperactivity followed by sedation and convulsions [7]: 6 times the therapeutic dose
Food intake [8]: significantly decreased food intake
Genotoxicity (DNA damage) [9]: induced DNA damage
Body weight ([10]; 10 mg/kg ip once a day, 40 days): decreased body weight
ID100: inhibition of food-intake and body weight ([10]; male mice): 10 mg/kg
Effect: inhibition of food-intake and body weight (repeated administration) ([10]; male mice, rimonabant 10 mg/kg): Yes
N fold ID100: inhibition of food-intake and body weight [10, 11]: 1

From patent publication US12583884B2, “3beta-(benzyloxy)-17alpha-methyl-pregn-5-en-20-one for use in the treatment of cognitive disorders” (AELIS FARMA, priority 2018, dated 2026)
